One may read the Ki as a dissociation constant, usually derived from enzyme kinetics or from competition with a known ligand.

For this assay, the target named is T1, Dihydrofolate reductase (Escherichia coli (strain K12), UniProt P0ABQ4).
T1 sequence (P0ABQ4 whole entry): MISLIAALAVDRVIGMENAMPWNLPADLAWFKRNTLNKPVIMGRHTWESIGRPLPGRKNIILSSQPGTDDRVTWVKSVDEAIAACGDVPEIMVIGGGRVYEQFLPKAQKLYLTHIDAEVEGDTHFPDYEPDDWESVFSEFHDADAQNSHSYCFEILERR
The assay can be described thus: ChEBML_54731.
Description: Apparent inhibitory (log 1/Ki) activity against Escherichia coli dihydrofolate reductase
In the case of `Nc1ncc(Cc2cc(OCc3ccccc3)cc(OCc3ccccc3)c2)c(N)n1`, the Ki was 1.7 nM. As to `CCCCOc1cc(Cc2cnc(N)nc2N)cc(Br)c1OC`, the Ki stood at 1.1 nM. `CCOc1cc(Cc2cnc(N)nc2N)cc(OCC)c1` showed a Ki of 0.776 nM. As for `COCCOc1cc(Cc2cnc(N)nc2N)ccc1OC`, the figure is 1.8 nM. The value for `Nc1ncc(Cc2ccc(OCc3ccccc3)cc2)c(N)n1` [5-(4-(benzyloxy)benzyl)pyrimidine-2,4-diamine] was 2 nM. On to `Cc1cc(C)cc(Cc2cnc(N)nc2N)c1`, for which affinity was put at a Ki of 8.9 nM. The value for `CS(=O)(=O)Oc1ccc(Cc2cnc(N)nc2N)cc1` was 7.1 nM; that for `CCCOc1cc(Cc2cnc(N)nc2N)cc(OCCC)c1` was 1.6 nM. As for `COc1ccc(Cc2cnc(N)nc2N)cc1OS(C)(=O)=O`, the figure is 1.1 nM; as for `COCCOc1ccc(Cc2cnc(N)nc2N)cc1OC`, 0.562 nM; as for `COc1ccc(Cc2cnc(N)nc2N)cc1OCc1ccccc1` [5-(3-Benzyloxy-4-methoxy-benzyl)-pyrimidine-2,4-diamine], 0.0977 nM. As for `CCCOc1cc(Cc2cnc(N)nc2N)cc(Br)c1OC`, the figure is 1.1 nM; as for `COc1cc(Cc2cnc(N)nc2N)ccc1O`, 0.891 nM; as for `CCCCOc1ccc(Cc2cnc(N)nc2N)cc1OC`, 0.977 nM. `CCCOc1cc(Cc2cnc(N)nc2N)cc(OCC)c1` returned a Ki of 3.2 nM. The value for `COc1cc(Cc2cnc(N)nc2N)ccc1OCc1ccccc1` [5-(4-(benzyloxy)-3-methoxybenzyl)pyrimidine-2,4-diamine] was 0.372 nM.

These data come from BindingDB's records for doi:10.1021/jm00397a017 (Beijing Medical University, 1988).
